{
  "source": "patent US12589143B2",
  "about": "“Human anti-PD-L1 peptide vaccines and methods of their use” (priority 2019, dated 2026)",
  "test_system": "MVF-PD-L1 peptide immunogen",
  "assay": "Immunogenicity in Balb/c mice, experiment 1 (CT26 WT): ELISA of sera vs each MVF-PD-L1 peptide immunogen",
  "format": "in vivo",
  "conditions": "for Immunogenicity (titers) 1′ Conc. 1:: Balb/c mice",
  "protocol": "Immunogenicity of MVF-PD-L1 B-cell epitopes. New Zealand White rabbits were immunized with 1 mg of each MVF-peptide immunogens dissolved in dd H2O emulsified (1:1) in Montanide ISA 720 vehicle (Seppic) with 333 μg of N-acetylglucosamine-3yl-acetyl-1-alanyl-d-isoglutamine (nor-MDP). Rabbits were boosted with the same doses at 3-week's intervals. Blood was collected via the central auricular artery in rabbits. Blood was collected weekly (1Y+3, 2Y+1, 2Y+2,2Y+3, 3Y+1, 3Y+2 and sera tested for antibody titers by ELISA using the immunogens MVF-PD-L1 peptides. Sera (terminal) from rabbit (3Y+3) immunized with MVF-PD-1 peptide immunogens were tested individually versus the immunogen by ELISA. 200 ng/well peptide were used in duplicates to coat the ELISA plates. Titers are defined as the highest dilution of sera with an absorbance value of 0.2 after subtracting the blank.\nFIGS. 5A, 5B, 5C, and 5D show the experimental scheme to test the immunization with PD-L1 in Balb/c mice. […] Balb/c mice 6-8 weeks old, were immunized with MVF-peptide immunogens emulsified in ISA 720 with nor-MDP three times and three weeks apart. Mice were immunized with MVF-PD-L1 vaccine constructs [PD-L1(36-53), PD-L1(50-67), PD-L1(95-112), PD-L1(130-147)] prior to tumor challenge. Blood was collected weekly and sera tested for antibody titers by ELISA. Two weeks after the third immunization (3Y), the mice were engrafted with CT26 WT tumor cells 10^5 per mouse Control mice were treated twice weekly with PBS as negative control and twice weekly with anti-mPD-L1 mAb (10F.9G2) as positive control starting 2 days after tumor challenge. Tumor growths were observed twice weekly and measured by calipers.\nImmunogenicity of MVF-PD-L1 peptides in BALB/c mice immunized with various peptide constructs. Sera collected weekly were tittered against each individual MVF-PD-L1 peptide immunogen. The Pink bar refers to titers versus PD-L1 130 and the red bar refers to titers versus PD-1 (92-110).\nIn order to verify the efficacy of the PD-L1 epitope vaccines in vivo in the CT26 carcinoma cell line, Balb/c mice (10 mice/group) were immunized with 100 μg each of MVF-PD-L1 (36-53), MVF-PD-L1 (50-67), MVF-PD-L1 (95-112) and MVF-PD-L1 (130-147) emulsified with nor-MDP and Montanide 720 (1:1 ratio) SCHEME 1A (FIG. 5A). As detailed in SCHEME 1A-D (FIGS. 5A, 5B, 5C, and 5D), mice were immunized 3 times at 3 weeks intervals. […] All PD-L1 epitopes elicited high titers of PD-L1 anti-peptide antibodies by ELISA. […] We also investigated the combination of PD-1(92-110) with PD-L1-130-147.\nFor each peptide, vaccine antibodies were raised in New Zealand white rabbits, purchased from Charles River Laboratories (Wilmington, MA, USA). Rabbits were immunized with 1 mg of MVF chimeric peptide emulsified in Montanide ISA 720 (Seppic, Paris, France) and boosted 3 times at three week intervals. For mouse experiments, mice, 6-8 weeks old, were immunized with 0.1 mg of peptide emulsified in ISA720 (1:1 ratio). Mice were boosted with the respective doses at 3-week intervals. Blood was then collected and sera were tested for antibody titers. Sera were collected weekly and peptide vaccine antibodies were purified by affinity chromatography using a protein A/G column and the concentration was measured using Spectrophometer. All experiments were performed in accordance with the U.S. Public Health Service Policy on Humane Care and Use of Laboratory animals and approved by the Ohio State University Institutional Animals Care and Use Committee, detailed in the accepted protocol.\n6-8 weeks old BALB/c mice (Charles River, Wilmington, MA) were used as standard animal models. Mouse CT26 colon carcinoma cell line was purchased from American Type Culture Collection Cells and were regularly cultured in RPMI1640 medium containing 10% FBS. CT26/HER2 cells were kindly provided by M. Penichet. Vaccines were dissolved in sterile water and emulsified in Montanide ISA 720 (1:1). […]",
  "note": "Values joined by “and” are separate entries in the source; they are usually repeats but may differ in a detail not shown here. Equal values may be shown once. Where no end group is shown, it is not given here.",
  "data": [
    {"sequence": "KLLSLIKGVIVHRLEGVEGPSLVTSEHELTCQAEGYPKAE (KLLSLIKGVIVHRLEGVEGPSLVTSEHELTCQAEGYPKAE-NH2) [PD-L1(130)]", "values": [
      {"measurement": "Immunogenicity (titers) 1′ Conc. 1:", "setting": "bleed 1Y + 3", "result": 12800},
      {"measurement": "Immunogenicity (titers) 1′ Conc. 1:", "setting": "bleed 2Y + 1", "result": 12800},
      {"measurement": "Immunogenicity (titers) 1′ Conc. 1:", "setting": "bleed 2Y + 2", "result": ">12800"},
      {"measurement": "Immunogenicity (titers) 1′ Conc. 1:", "setting": "bleed 2Y + 3", "result": 128000},
      {"measurement": "Immunogenicity (titers) 1′ Conc. 1:", "setting": "bleed 3Y + 1", "result": 128000},
      {"measurement": "Immunogenicity (titers) 1′ Conc. 1:", "setting": "bleed 3Y + 2", "result": 64000},
      {"measurement": "Immunogenicity (titers) 1′ Conc. 1:", "setting": "bleed 3Y + 3", "result": 64000},
      {"measurement": "ELISA absorbance of sera", "setting": "bleed 1Y + 3 (1to100), dilution 100, primary antibody dilution 1:100", "result": "1.571 and 1.562"},
      {"measurement": "ELISA absorbance of sera", "setting": "bleed 1Y + 3 (1to100), dilution 200, primary antibody dilution 1:200", "result": "1.513 and 1.428"},
      {"measurement": "ELISA absorbance of sera", "setting": "bleed 1Y + 3 (1to100), dilution 400, primary antibody dilution 1:400", "result": "1.359 and 1.348"},
      {"measurement": "ELISA absorbance of sera", "setting": "bleed 1Y + 3 (1to100), dilution 800, primary antibody dilution 1:800", "result": "1.151 and 1.105"},
      {"measurement": "ELISA absorbance of sera", "setting": "bleed 1Y + 3 (1to100), dilution 1,600", "result": "0.888 and 0.871"},
      {"measurement": "ELISA absorbance of sera", "setting": "bleed 1Y + 3 (1to100), dilution 3,200", "result": "0.580 and 0.528"},
      {"measurement": "ELISA absorbance of sera", "setting": "bleed 1Y + 3 (1to100), dilution 6,400", "result": "0.348 and 0.314"},
      {"measurement": "ELISA absorbance of sera", "setting": "bleed 1Y + 3 (1to100), dilution 12,800", "result": "0.204 and 0.196"},
      {"measurement": "ELISA absorbance of sera", "setting": "bleed 2Y + 1 (1to100), dilution 100, primary antibody dilution 1:100", "result": "1.492 and 1.522"},
      {"measurement": "ELISA absorbance of sera", "setting": "bleed 2Y + 1 (1to100), dilution 200, primary antibody dilution 1:200", "result": "1.511 and 1.473"},
      {"measurement": "ELISA absorbance of sera", "setting": "bleed 2Y + 1 (1to100), dilution 400, primary antibody dilution 1:400", "result": "1.450 and 1.355"},
      {"measurement": "ELISA absorbance of sera", "setting": "bleed 2Y + 1 (1to100), dilution 800, primary antibody dilution 1:800", "result": "1.299 and 1.243"},
      {"measurement": "ELISA absorbance of sera", "setting": "bleed 2Y + 1 (1to100), dilution 1,600", "result": "1.049 and 0.898"},
      {"measurement": "ELISA absorbance of sera", "setting": "bleed 2Y + 1 (1to100), dilution 3,200", "result": "0.757 and 0.652"},
      {"measurement": "ELISA absorbance of sera", "setting": "bleed 2Y + 1 (1to100), dilution 6,400", "result": "0.461 and 0.403"},
      {"measurement": "ELISA absorbance of sera", "setting": "bleed 2Y + 1 (1to100), dilution 12,800", "result": "0.286 and 0.239"},
      {"measurement": "ELISA absorbance of sera", "setting": "bleed 2Y + 2 (1to100), dilution 100", "result": "1.483 and 1.544"},
      {"measurement": "ELISA absorbance of sera", "setting": "bleed 2Y + 2 (1to100), dilution 200", "result": "1.510 and 1.484"},
      {"measurement": "ELISA absorbance of sera", "setting": "bleed 2Y + 2 (1to100), dilution 400", "result": "1.508 and 1.469"},
      {"measurement": "ELISA absorbance of sera", "setting": "bleed 2Y + 2 (1to100), dilution 800", "result": "1.407 and 1.322"},
      {"measurement": "ELISA absorbance of sera", "setting": "bleed 2Y + 2 (1to100), dilution 1,600", "result": "1.252 and 1.192"},
      {"measurement": "ELISA absorbance of sera", "setting": "bleed 2Y + 2 (1to100), dilution 3,200", "result": "0.977 and 0.852"},
      {"measurement": "ELISA absorbance of sera", "setting": "bleed 2Y + 2 (1to100), dilution 6,400", "result": "0.704 and 0.577"},
      {"measurement": "ELISA absorbance of sera", "setting": "bleed 2Y + 3 (1to1k), dilution 100", "result": "1.227 and 1.226"},
      {"measurement": "ELISA absorbance of sera", "setting": "bleed 2Y + 3 (1to1k), dilution 200", "result": "1.175 and 1.183"},
      {"measurement": "ELISA absorbance of sera", "setting": "bleed 2Y + 3 (1to1k), dilution 400", "result": "1.164 and 1.091"},
      {"measurement": "ELISA absorbance of sera", "setting": "bleed 2Y + 3 (1to1k), dilution 800", "result": "1.040 and 0.957"},
      {"measurement": "ELISA absorbance of sera", "setting": "bleed 2Y + 3 (1to1k), dilution 1,600", "result": "0.846 and 0.797"},
      {"measurement": "ELISA absorbance of sera", "setting": "bleed 2Y + 3 (1to1k), dilution 3,200", "result": "0.665 and 0.655"},
      {"measurement": "ELISA absorbance of sera", "setting": "bleed 2Y + 3 (1to1k), dilution 6,400", "result": "0.432 and 0.397"},
      {"measurement": "ELISA absorbance of sera", "setting": "bleed 3Y + 1 (1to1k), dilution 100", "result": "1.387 and 1.385"},
      {"measurement": "ELISA absorbance of sera", "setting": "bleed 3Y + 1 (1to1k), dilution 200", "result": "1.327 and 1.336"},
      {"measurement": "ELISA absorbance of sera", "setting": "bleed 3Y + 1 (1to1k), dilution 400", "result": "1.315 and 1.233"},
      {"measurement": "ELISA absorbance of sera", "setting": "bleed 3Y + 1 (1to1k), dilution 800", "result": "1.176 and 1.081"},
      {"measurement": "ELISA absorbance of sera", "setting": "bleed 3Y + 1 (1to1k), dilution 1,600", "result": "0.955 and 0.901"},
      {"measurement": "ELISA absorbance of sera", "setting": "bleed 3Y + 1 (1to1k), dilution 3,200", "result": "0.752 and 0.740"},
      {"measurement": "ELISA absorbance of sera", "setting": "bleed 3Y + 1 (1to1k), dilution 6,400", "result": "0.488 and 0.449"},
      {"measurement": "ELISA absorbance of sera", "setting": "bleed 3Y + 2 (1to1k), dilution 100", "result": "1.562 and 1.601"},
      {"measurement": "ELISA absorbance of sera", "setting": "bleed 3Y + 2 (1to1k), dilution 200", "result": "1.394 and 1.374"},
      {"measurement": "ELISA absorbance of sera", "setting": "bleed 3Y + 2 (1to1k), dilution 400", "result": "1.156 and 1.199"},
      {"measurement": "ELISA absorbance of sera", "setting": "bleed 3Y + 2 (1to1k), dilution 800", "result": "0.867 and 0.876"},
      {"measurement": "ELISA absorbance of sera", "setting": "bleed 3Y + 2 (1to1k), dilution 1,600", "result": "0.656 and 0.658"},
      {"measurement": "ELISA absorbance of sera", "setting": "bleed 3Y + 2 (1to1k), dilution 3,200", "result": "0.439 and 0.431"},
      {"measurement": "ELISA absorbance of sera", "setting": "bleed 3Y + 2 (1to1k), dilution 6,400", "result": 0.286},
      {"measurement": "ELISA absorbance of sera", "setting": "bleed 3Y + 3 (1to1k), dilution 100", "result": "1.823 and 1.827"},
      {"measurement": "ELISA absorbance of sera", "setting": "bleed 3Y + 3 (1to1k), dilution 200", "result": "1.614 and 1.704"},
      {"measurement": "ELISA absorbance of sera", "setting": "bleed 3Y + 3 (1to1k), dilution 400", "result": "1.411 and 1.516"},
      {"measurement": "ELISA absorbance of sera", "setting": "bleed 3Y + 3 (1to1k), dilution 800", "result": "1.110 and 1.208"},
      {"measurement": "ELISA absorbance of sera", "setting": "bleed 3Y + 3 (1to1k), dilution 1,600", "result": "0.752 and 0.880"},
      {"measurement": "ELISA absorbance of sera", "setting": "bleed 3Y + 3 (1to1k), dilution 3,200", "result": "0.445 and 0.537"},
      {"measurement": "ELISA absorbance of sera", "setting": "bleed 3Y + 3 (1to1k), dilution 6,400", "result": 0.243}
    ]}
  ]
}
